According to patent US11320428B2, “Probe for dual-mode bio-imaging” (THE HONG KONG UNIVERSITY OF SCIENCE AND TECHNOLOGY, priority 2017, dated 2022):

Key:
[1] = system: HeLa cells; test: Cell viability / cytotoxicity evaluated by MTT assay; assay type: cell-based
Description: For cell culturing, HeLa cells were cultured in the MEM containing 10% FBS and antibiotics (100 units/mL penicillin and 100 µg/mL streptomycin) in a humidity incubator with an atmosphere of 5% CO2 at 37° C. and subcultured every 2-3 days.
For cell viability evaluated by MTT assay, cells were seeded in 96-well plates at a density of 10000 cells per well. After 24 h incubation, medium in each well was replaced by 100 μL fresh medium containing different concentrations of AIE-SRS-Mito. After 24 hours of treatment, into each well, 10 μL MTT solution (5 mg/mL in PBS) was added. After 4 hours of incubation, the MTT-containing solution was gently removed and replaced with 100 μL of DMSO. After agitation, the absorption of each well at 490 nm was recorded via a plate reader (Perkin-Elmer Victor3™). Each of the experiments were performed for 6 wells parallel. The background of the blank was subtracted and the cell viability of the control group was set to unity.
Cell cytotoxicity was evaluated by MTT assay (FIG. 4E). HeLa cells were incubated with different concentrations of AIE-SRS-Mito for 24 hours. For example, HeLa cells were incubated with different concentrations of AIE-SRS-Mito for 20 or 40 min and then the medium was replaced with fresh medium, followed by further incubation for 24 hours.

[2] = system: HeLa cells; test: Fluorescence cell imaging and co-localization with Mitotracker Red FM; assay type: cell-based; settings: 20 min
Description: For cell imaging, HeLa cells were grown overnight on a 35-mm petri dish with a cover slip. The cover slip was mounted to an iron slide with observation window. The staining solution was prepared by adding the dye stock solution (10 mM in DMSO) in to 2 mL of cell medium. Before imaging, the cells were stained with 2 mL of dye solution for a certain time and then imaged under an FL microscope (BX41 upright Microscope) using different combinations of excitation and emission filters for each dye.
To verify the mitochondrial specificity of AIE-SRS-Mito, cellular imaging was first conducted by incubating HeLa cells with 5 μM AIE-SRS-Mito for 20 min.
A co-localization experiment was then conducted using AIE-SRS-Mito and a commercial mitochondrial probe, Mitotacker Red (MTR) FM. The excitation wavelength was 330-385 nm for AIE-SRS-Mito and 540-580 nm for MTR. As shown in FIGS. 4A-4D, AIE-SRS-Mito stained the linear reticulum-like structures in cells with high contrast.

[3] = system: HeLa cells; test: FL-SRS imaging: intracellular dye concentration from SRS intensity (ISRS=0.1567c); assay type: cell-based; settings: for percentage of high concentration region (>0.5 mM) / ultimate high concentration within the cells: 20 μM; for ultimate high concentration within the cells: covering >99.5% cell area
Text: To eliminate the influence of light reflection and scattering on the baseline, SRS intensity ION at 2223 cm^−1 (resonance-on) and IOFF at 2160 cm^−1 (resonance-off) was used to calculate the SRS signal intensity ISRS=ION−IOFF. After subtracting the intrinsic ISRS=0.042 V in pure DMSO (background), a linear relationship between SRS intensity ISRS and the dye concentration c was obtained as ISRS=0.1567c with R^2=0.99944 in the plot shown in FIG. 5B. The analytical detection limit and quantification limit were calculated to be 8.5 μM and 28.4 μM, respectively, indicating the high sensitivity of the SRS system. Further, the SRS spectra of AIE-SRS-Mito were collected at different concentrations in DMSO and no obvious shifts in the peak position was found, indicating the inertness of Raman signal to the concentration change. Due to the inert response of SRS signal to the change of environment, the linear plot of ISRS=0.1567c can act further as a calibration for the intracellular dye concentration by keeping the same signal collecting condition.
At first, as shown in FIGS. 9A-9D, images of HeLa cells were collected by TPEF and SRS signals, respectively, and the merged image indicated a perfect co-localization of the intracellular distribution of the fluorescence and SRS signals, confirming the dual-modality of the probe. […] Due to the inertness of SRS signal and the linear relationship (ISRS=0.1567 c), the distribution of the dye concentration inside a single cell was further analyzed.
To examine the influence of intracellular concentration of AIE-SRS-Mito on the cells, attempts were made to increase the amounts of dye in the cells by increasing the incubation time. As shown in FIGS. 11A-11F, with the extension of incubation time, both the TPEF and SRS intensity were increased with a reduced mitochondrial selectivity. […] This can be attributed to the fact that the high concentration of cationic dyes in the mitochondria matrix will cause depolarization and increase the osmotic stress of the mitochondria, consequently leading to cell death as indicated by the results of the MTT assay (FIG. 4E). Similar results were found when increasing the dye concentration (FIGS. 12A-12F).
To further study acceptable intracellular concentrations of the dye molecules in a cell, the distribution of the dye concentration for cells was plotted. The percentages of high concentration region (>0.5 mM) were calculated to be 16.7%, 23.9% and 30.0% for the cells incubated with 20 μM of AIE-SRS-Mito for 30, 60 and 105 min, respectively. The ultimate high concentration within the cells was estimated to be 1.5, 2.0, 3.0 mM, respectively, covering >99.5% cell area. […] Such a high concentration is enough to cause the quenching of Rhodamine 123 in cells.

[4] = Behaviour in DMSO-water mixtures (solubility in water); assay type: physicochemical; settings: aggregation/precipitation above 70 vol % water, 10 μM
Text: Then AIE-SRS-Mito was studied in DMSO-water mixtures with different water fractions. As shown in FIGS. 1C-1D, the emission peak intensity was decreased with the increase of water fraction from 0 to 70 vol % due the quenching effect of the highly polar water. […] This is a typical AIE phenomenon, as the free intramolecular rotations of the excited molecules were restricted upon aggregation, thus blocking the non-radiative decays and favoring the radiative decay. Only a slight red-shift in peak wavelength was observed and this should be attributed to the increased solution polarity by increasing water fraction. The AIE feature and TICT effect upon excitation were further verified by the theoretical calculations (FIGS. 2A-2C).

[5] = system: HeLa cells; test: SRS imaging in live cells; assay type: cell-based; settings: 5 μM for 60 min, staining much shorter than EdU
Description: SRS imaging was conducted with live HeLa cells to validate a newly built SRS imaging system. The DNA of HeLa cells were pre-labeled with EdU by incubation with 100 μM of EdU in culture medium for 22 hours to ensure sufficient cell-uptake. FIGS. 7A-7D show the distributions of protein, lipid, cytochrome c and DNA in HeLa cells at 2950 cm^−1, 2845 cm^−1, 752 cm^−1, and 2125 cm^−1, respectively.
Due to the high Raman signal (RIE=6) and mitochondria targeting of AIE-SRS-Mito, AIE-SRS-Mito can serve as a mitochondrial probe for Raman microscopy. In previous reports, cytochrome c, an endogenous protein abundant in the mitochondria membrane, was used for visualization of the mitochondria. However, compared to the unclear and low-contrast image of mitochondria by cytochrome c (752 cm^−1, FIG. 7C), the SRS image of mitochondria in HeLa cells were obtained at 2223 cm^−1 with much more clear reticulum-like structures after incubated with 5 μM of AIE-SRS-Mito for 60 min (FIGS. 8A and 8C). Meanwhile, the nuclei of the Hela cells were prelabeled with EdU and imaged at 2125 cm^−1 (FIGS. 8B and 8D).

Compound: CC[n+]1ccc(-c2ccc(/C(C#N)=C/c3ccc(C#Cc4ccccc4)cc3)cc2)cc1 [AIE-SRS-Mito]
- IC50 ([1]; Homo sapiens, incubation for 24 hours, concentrations 0 to 40 μM, FIG. 4E, read-out: half maximal inhibitory concentration (IC50) of cell viability): ~7 µM
- cell viability ([1]; treatment with <40 μM for <40 min, then fresh medium and further 24 hours): over 70%
- mitochondrial selectivity (overlap with Mitotracker Red FM fluorescence) ([2]; HeLa cells co-stained, 5 μM probe and 100 nM MTR): good mitochondrial selectivity
- cell permeability ([2]; HeLa cells, 5 μM, fluorescence imaging, compared to synthetic precursors): good cell permeability
- dye concentration in mitochondria matrix tolerated by cells ([3]; HeLa cells, with moderate cell viability): up to 3.0 mM
- percentage of high concentration region (>0.5 mM) ([3]; HeLa, 30 min): 16.7%
- ultimate high concentration within the cells ([3]; HeLa, 30 min): 1.5 mM
- percentage of high concentration region (>0.5 mM) ([3]; HeLa, 60 min): 23.9%
- ultimate high concentration within the cells ([3]; HeLa, 60 min): 2.0 mM
- percentage of high concentration region (>0.5 mM) ([3]; HeLa, 105 min): 30.0%
- ultimate high concentration within the cells ([3]; HeLa, 105 min): 3.0 mM
- local concentration relative to incubation concentration ([3]; HeLa, incubation concentration 20 μM, 30 min): 75 folds
- local concentration within a cell ([3]; single HeLa cell, 20 μM for 30 min, FIG. 10D): up to 1.5 mM
- solubility in water [4]: poor solubility
- cell permeability [5]: good cell permeability
